Consider three molecules from patent US4537885A, “Certain benzazocinone and benzazoninone derivatives” (Ciba Geigy Corporation, priority 1984, dated 1985).

Counter-ions that a name gives are not always drawn.

The target of experiment [1] is T1, angiotensin-converting enzyme (Oryctolagus cuniculus, UniProt P12822).
T1 construct: angiotensin-converting enzyme preparation (from lungs of adult male rabbits); from tissue; host or cells: lungs of adult male rabbits
T1 sequence (P12822 34-1310): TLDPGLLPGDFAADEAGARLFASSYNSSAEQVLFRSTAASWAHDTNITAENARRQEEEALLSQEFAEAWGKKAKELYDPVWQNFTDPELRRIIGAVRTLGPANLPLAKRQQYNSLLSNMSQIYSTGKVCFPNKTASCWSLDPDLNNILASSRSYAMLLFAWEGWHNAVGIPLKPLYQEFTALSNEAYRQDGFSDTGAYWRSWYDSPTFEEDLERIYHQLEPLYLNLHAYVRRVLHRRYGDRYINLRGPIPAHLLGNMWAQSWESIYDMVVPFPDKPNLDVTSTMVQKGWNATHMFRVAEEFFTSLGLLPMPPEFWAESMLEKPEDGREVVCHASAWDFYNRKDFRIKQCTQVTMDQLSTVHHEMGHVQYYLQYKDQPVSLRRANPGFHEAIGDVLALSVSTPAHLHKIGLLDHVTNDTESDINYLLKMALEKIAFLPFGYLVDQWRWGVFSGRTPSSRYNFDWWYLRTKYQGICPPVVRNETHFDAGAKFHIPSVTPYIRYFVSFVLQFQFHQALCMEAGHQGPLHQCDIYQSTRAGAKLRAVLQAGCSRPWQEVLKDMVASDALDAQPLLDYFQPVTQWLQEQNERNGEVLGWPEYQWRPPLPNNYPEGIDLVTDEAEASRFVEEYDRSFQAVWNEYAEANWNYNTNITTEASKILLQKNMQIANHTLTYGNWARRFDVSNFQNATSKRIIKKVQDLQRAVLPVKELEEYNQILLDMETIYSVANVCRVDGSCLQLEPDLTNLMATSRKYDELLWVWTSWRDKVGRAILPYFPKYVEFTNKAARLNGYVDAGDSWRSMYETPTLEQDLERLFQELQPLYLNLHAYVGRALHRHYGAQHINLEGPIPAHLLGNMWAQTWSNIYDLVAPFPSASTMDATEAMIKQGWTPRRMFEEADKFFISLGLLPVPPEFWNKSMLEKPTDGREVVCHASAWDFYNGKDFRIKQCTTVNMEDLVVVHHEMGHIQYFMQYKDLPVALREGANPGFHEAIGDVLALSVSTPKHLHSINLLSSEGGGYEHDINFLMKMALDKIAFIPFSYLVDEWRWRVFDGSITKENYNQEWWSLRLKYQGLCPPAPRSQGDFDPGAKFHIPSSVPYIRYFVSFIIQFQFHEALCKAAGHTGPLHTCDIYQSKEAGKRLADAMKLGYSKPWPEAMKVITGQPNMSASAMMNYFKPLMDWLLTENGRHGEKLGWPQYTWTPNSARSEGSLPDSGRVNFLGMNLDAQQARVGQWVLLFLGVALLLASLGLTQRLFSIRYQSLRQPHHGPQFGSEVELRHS
Description: in vitro inhibition of the angiotensin-converting enzyme (hippuryl-histidyl-leucine substrate). The settings on record: in vitro test; enzyme from lungs of adult male rabbits; 37° C., 30 minutes. The class given is biochemical, rabbit. The protocol:
Biophys. Acta 293, 451 (1973). According to this method, said compounds are dissolved at about 1 mM concentration in phosphate buffer. […] Said solutions are incubated at 37° C. for 30 minutes and combined with 0.75 ml of 0.6N aqueous sodium hydroxide to stop further reaction. Then 100 microliters of a 0.2% solution of o-phthalaldehyde in methanol are added at room temperature, and 10 minutes later 100 microliters of 6N hydrochloric acid. These samples are read against water in a spectrophotometer set at 360 nm, and the optical densities thereof estimated. They are corrected for the standard curve via a conversion factor expressing nanomoles of histidyl-leucine formed during said 30 minute incubation period. The results are plotted against concentration to determine the IC50, i.e., the concentration of the compound which gives half the activity of the control sample. Illustrative of the invention, and according to the test methods previously described, the following angiotensin-converting enzyme inhibition data is obtained.

For experiment [2], the system named is angiotensin-converting enzyme. Description: in vivo inhibition of the Angiotensin I induced pressor response in anesthetized normotensive rats. The settings on record: p.o. administration of 3.3 mg/kg (rat), at 1 hr. The protocol: Angiotensin I is hydrolyzed by the action of said converting enzyme to the potent pressor substance Angiotensin II. The inhibition of said enzyme prevents the generation of Angiotensin II from I and, therefore, attenuates any pressor response following an Angiotensin I challenge.
The corresponding in vivo test is performed with male, normotensive rats, which are anesthetized with sodium 5-ethyl-5-(1-methylpropyl)-2-thiobarbiturate. A femoral artery and saphenous vein are cannulated respectively for direct blood pressure measurement and the i.v. administration of Angiotensin I and a compound of this invention. After the basal blood pressure is stabilized, pressor responses to 3 challenges of 333 ng/kg angiotensin I i.v., at 5 minute intervals, are obtained. Such pressure resonses are usually again obtained at 5, 10, 15, 30 and 60 minutes after i.v. administration or 1, 2, 3 and 4 hours after p.o. administration of the compound to be tested, and compared with the initial responses. Any observed decrease of said pressor response caused by the compounds of the invention is an indication of Angiotensin I converting enzyme inhibition.
Illustrative of the invention, and according to the test methods previously described, the following angiotensin-converting enzyme inhibition data is obtained.

For the molecule `NCCCC[C@H](N[C@H]1CCCc2ccccc2N(CC(=O)O)C1=O)C(=O)O` [S,S compound of example 12, 3-[(5-amino-1-(S)-carboxypentyl)amino]-1-carboxymethyl-3,4,5,6-tetrahydro-(3S)-1-benzazocin-2-1H-one hydrochloride], in experiment [1], the IC50 (usually the concentration that gives 50% inhibition) is 27 nM. That is a double-digit nanomolar value.

The molecule `O=C(O)CN1C(=O)[C@@H](N[C@@H](CCc2ccccc2)C(=O)O)CCCc2ccccc21` [example 7a, 1-carboxymethyl-3-(1-carboxy-3-phenyl-(1S)-propylamino)-3,4,5,6-tetrahydro-(3S)-1-benzazocin-2-1H-one hydrochloride] yielded an IC50 in experiment [1] of 7.5 nM.

As for `CCOC(=O)[C@H](CCc1ccccc1)N[C@H]1CCCc2ccccc2N(CC(=O)O)C1=O` [example 8a, 1-carboxymethyl-3-(1-ethoxycarbonyl-3-phenyl-(1S)-propylamino-3,4,5,6-tetrahydro-(3S)-1-benzazocin-2-1H-one hydrochloride], the “inhibition of Angiotensin I pressor response (in vivo test)” value in experiment [2] came out at 69%.
